Measured values as given in patent US9834559B2, “4-Amino-6-phenyl-5,6-dihydroimidazo[1,5-a]pyrazin-3(2H)-one derivatives as inhibitors of beta-secretase (BACE)” (Janssen Pharmaceutica NV, priority 2013, dated 2017).

Legend:
[1] = biological target: recombinant BACE1 protein (Homo sapiens, UniProt P56817); experiment: BACE1 biochemical FRET based assay; settings: BACE1 0.04 μg/ml, 20 μM substrate, pH 5.0, 450 min; read-out: Biochemical FRET based assay pIC50 (converted)
Description: (§1) This assay is a Fluorescence Resonance Energy Transfer Assay (FRET) based assay. The substrate for this assay is an APP derived 13 amino acids peptide that contains the ‘Swedish’ Lys-Met/Asn-Leu mutation of the amyloid precursor protein (APP) beta-secretase cleavage site. This substrate also contains two fluorophores: (7-methoxycoumarin-4-yl) acetic acid (Mca) is a fluorescent donor with excitation wavelength at 320 nm and emission at 405 nm and 2,4-Dinitrophenyl (Dnp) is a proprietary quencher acceptor. […] Upon cleavage by BACE1, the fluorophore Mca is separated from the quenching group Dnp, restoring the full fluorescence yield of the donor. The increase in fluorescence is linearly related to the rate of proteolysis.
Briefly in a 384-well format recombinant BACE1 protein in a final concentration of 0.04 μg/ml is incubated for 450 minutes at room temperature with 20 μM substrate in incubation buffer (50 mM Citrate buffer pH 5.0, 0.05% PEG) in the presence of compound or DMSO. Next the amount of proteolysis is directly measured by fluorescence measurement (excitation at 320 nm and emission at 405 nm) at different incubation times (0, 30, 60, 90, 120 and 450 min). For every experiment a time curve (every 30 min between 0 min and 120 min) is used to determine the time where we find the lowest basal signal of the high control. The signal at this time (Tx) is used to subtract from the signal at 450 min. Results are expressed in RFU, as difference between T450 and Tx.
(§2) A best-fit curve is fitted by a minimum sum of squares method to the plot of % Controlmin versus compound concentration. From this an IC50 value (inhibitory concentration causing 50% inhibition of activity) can be obtained. • LC=Median of the low control values • =Low control: Reaction without enzyme • HC=Median of the High control values • =High Control: Reaction with enzyme • % Effect=100−[(sample−LC)/(HC−LC)*100] • % Control=(sample/HC)*100 • % Controlmin=(sample−LC)/(HC−LC)*100

[2] = tested on: Abeta 1-42 produced and secreted by human neuroblastoma SKNBE2 cells expressing hAPP695; experiment: Cellular αLisa assay in SKNBE2 cells, Abeta 1-42; type: cell-based; settings: 18 hours incubation, read-out: Cellular αLisa assay in SKNBE2 cells Abeta 42 pIC50 (converted)
Experimental: (§3) In two αLisa assays the levels of Abeta total and Abeta 1-42 produced and secreted into the medium of human neuroblastoma SKNBE2 cells are quantified. The assay is based on the human neuroblastoma SKNBE2 expressing the wild type Amyloid Precursor Protein (hAPP695). The compounds are diluted and added to these cells, incubated for 18 hours and then measurements of Abeta 1-42 and Abeta total are taken. Abeta total and Abeta 1-42 are measured by sandwich αLisa. αLisa is a sandwich assay using biotinylated antibody AbN/25 attached to streptavidin coated beads and antibody Ab4G8 or cAb42/26 conjugated acceptor beads for the detection of Abeta total and Abeta 1-42 respectively. In the presence of Abeta total or Abeta 1-42, the beads come into close proximity. The excitation of the donor beads provokes the release of singlet oxygen molecules that trigger a cascade of energy transfer in the acceptor beads, resulting in light emission. Light emission is measured after 1 hour incubation (excitation at […] and emission at 615 nm).
as §2, with “cells preincubated” for “Reaction”, “compound, without biotinylated Ab in the αLisa” for “enzyme”, “cells preincubated without compound” for “Reaction with enzyme”

[3] = tested on: Abeta total produced and secreted by human neuroblastoma SKNBE2 cells expressing hAPP695; experiment: Cellular αLisa assay in SKNBE2 cells, Abeta total; type: cell-based; settings: 18 hours incubation, read-out: Cellular αLisa assay in SKNBE2 cells Abetatotal pIC50 (converted)
Experimental: as §3
as §2, with “cells preincubated” for “Reaction”, “compound, without biotinylated Ab in the αLisa” for “enzyme”, “cells preincubated without compound” for “Reaction with enzyme”

[4] = biological target: T1, recombinant BACE2 protein (Homo sapiens, UniProt Q9Y5Z0); experiment: BACE2 biochemical FRET based assay; settings: BACE2 0.4 μg/ml, 10 μM substrate, pH 5.0, 450 min; read-out: BACE2 Biochemical FRET based assay pIC50 (converted)
T1 sequence (Q9Y5Z0 63-518): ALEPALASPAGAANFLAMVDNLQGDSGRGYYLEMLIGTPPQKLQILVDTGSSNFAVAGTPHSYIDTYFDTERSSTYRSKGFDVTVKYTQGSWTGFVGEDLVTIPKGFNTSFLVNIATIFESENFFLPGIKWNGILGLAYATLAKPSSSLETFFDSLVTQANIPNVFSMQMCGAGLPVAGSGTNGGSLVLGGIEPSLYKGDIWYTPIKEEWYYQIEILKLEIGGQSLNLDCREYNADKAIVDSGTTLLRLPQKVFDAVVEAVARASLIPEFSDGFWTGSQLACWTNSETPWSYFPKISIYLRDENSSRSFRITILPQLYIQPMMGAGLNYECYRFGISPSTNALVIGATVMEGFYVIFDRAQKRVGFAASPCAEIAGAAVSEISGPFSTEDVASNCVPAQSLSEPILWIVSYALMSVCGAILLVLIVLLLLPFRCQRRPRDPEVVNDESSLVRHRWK
Description: as §1, with “assay” for “assay is an APP derived 13 amino acids peptide that”, “the beta-secretase,” for “BACE1,”
Briefly in a 384-well format recombinant BACE2 protein in a final concentration of 0.4 μg/ml is incubated for 450 minutes at room temperature with 10 μM substrate in incubation buffer (50 mM Citrate buffer pH 5.0, 0.05% PEG, no DMSO) in the absence or presence of compound. Next the amount of proteolysis is directly measured by fluorescence measurement at T=0 and T=450 (excitation at 320 nm and emission at 405 nm). Results are expressed in RFU (Relative Fluorescence Units), as difference between T450 and T0.
as §2

Chain of recombinant BACE1 protein (P56817 46-501): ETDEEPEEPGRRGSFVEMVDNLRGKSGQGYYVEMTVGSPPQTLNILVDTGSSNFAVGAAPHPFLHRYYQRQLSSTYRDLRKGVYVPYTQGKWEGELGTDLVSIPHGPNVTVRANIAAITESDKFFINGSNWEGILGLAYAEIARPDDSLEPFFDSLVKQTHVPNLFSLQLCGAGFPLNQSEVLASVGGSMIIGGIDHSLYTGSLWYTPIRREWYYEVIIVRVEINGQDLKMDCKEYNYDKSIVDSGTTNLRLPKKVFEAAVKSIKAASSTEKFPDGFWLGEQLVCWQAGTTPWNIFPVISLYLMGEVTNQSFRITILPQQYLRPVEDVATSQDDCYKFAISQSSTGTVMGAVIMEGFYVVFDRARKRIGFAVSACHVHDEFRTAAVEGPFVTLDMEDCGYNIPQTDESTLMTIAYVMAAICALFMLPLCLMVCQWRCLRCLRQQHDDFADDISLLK

Structure (SMILES) | IC50 [1] [nM] | IC50 [2] [nM] | IC50 [3] [nM] | IC50 [4] [nM] | melting point [°C]
Cn1cc2n(c1=O)C[C@@](C)(c1cc(-c3cncnc3)ccc1F)N=C2N [Compound 2, (6R)-8-Amino-6-(2-fluoro-5-pyrimidin-5-ylphenyl)-2,6-dimethyl-5,6-dihydro-imidazo[1,5-a]pyrazin-3(2H)-one] | 490 | 1260 | 1020 | 7080 | 239.1
COc1cnc(C(=O)Nc2ccc(F)c([C@]3(C)Cn4c(cn(C)c4=O)C(N)=N3)c2)cn1 [Compound 5, N-{3-[(6R)-8-amino-2,6-dimethyl-3-oxo-2,3,5,6-tetrahydroimidazo[1,5-a]pyrazin-6-yl]-4-fluorophenyl}-5-methoxypyrazine-2-carboxamide] | 9.55 | 36.3 | 29.5 | 100 | 
Cn1cc2n(c1=O)C[C@@](C)(c1cc(NC(=O)c3ccc(F)cn3)ccc1F)N=C2N [Compound 6, N-{3-[(6R)-8-amino-2,6-dimethyl-3-oxo-2,3,5,6-tetrahydroimidazo[1,5-a]pyrazin-6-yl]-4-fluorophenyl}-5-fluoropyridine-2-carboxamide] | 15.1 | 87.1 | 89.1 | 13.2 | 
C[C@@]1(c2cc(NC(=O)c3ccc(F)cn3)ccc2F)Cn2c(cn(CC(F)(F)F)c2=O)C(N)=N1 [Compound 7, N-{3-[(6R)-8-amino-6-methyl-3-oxo-2-(2,2,2-trifluoroethyl)-2,3,5,6-tetrahydroimidazo[1,5-a]pyrazin-6-yl]-4-fluorophenyl}-5-fluoropyridine-2-carboxamide] | 12.3 | 18.6 | 16.6 | 7.41 | 239.9
C[C@@]1(c2cc(NC(=O)c3ccc(Cl)cn3)ccc2F)Cn2c(cn(CC(F)(F)F)c2=O)C(N)=N1 [Compound 8, N-{3-[(6R)-8-amino-6-methyl-3-oxo-2-(2,2,2-trifluoroethyl)-2,3,5,6-tetrahydroimidazo[1,5-a]pyrazin-6-yl]-4-fluorophenyl}-5-chloropyridine-2-carboxamide] | 4.68 | 5.62 | 4.79 | 6.61 | 219.9

Now from value to compound:

IC50 [1] [nM] | IC50 [2] [nM] | IC50 [3] [nM] | IC50 [4] [nM] | melting point [°C] | Structure (SMILES)
7.76 | 38.9 | 33.1 | 22.9 |  | Cc1cc(C#N)cnc1C(=O)Nc1ccc(F)c([C@]2(C)Cn3c(cn(C)c3=O)C(N)=N2)c1 [Compound 9, N-{3-[(6R)-8-amino-2,6-dimethyl-3-oxo-2,3,5,6-tetrahydroimidazo[1,5-a]pyrazin-6-yl]-4-fluorophenyl}-5-cyano-3-methylpyridine-2-carboxamide]
5.62 | 12.6 | 10.7 | 12 | 235 | C[C@@]1(c2cc(NC(=O)c3ccc(C#N)cn3)ccc2F)Cn2c(cn(CC(F)(F)F)c2=O)C(N)=N1 [Compound 10, N-{3-[(6R)-8-amino-6-methyl-3-oxo-2-(2,2,2-trifluoroethyl)-2,3,5,6-tetrahydroimidazo[1,5-a]pyrazin-6-yl]-4-fluorophenyl}-5-cyanopyridine-2-carboxamide]
8.71 | 12.3 | 10 | 55 | 280.5 | COc1cnc(C(=O)Nc2ccc(F)c([C@]3(C)Cn4c(cn(CC(F)(F)F)c4=O)C(N)=N3)c2)cn1 [Compound 11, N-{3-[(6R)-8-amino-6-methyl-3-oxo-2-(2,2,2-trifluoroethyl)-2,3,5,6-tetrahydroimidazo[1,5-a]pyrazin-6-yl]-4-fluorophenyl}-5-methoxypyrazine-2-carboxamide]
